The test system of experiment [1] is gastric cancer cell line (NUGC-3). As to the kind of experiment: Cancer proliferation inhibitory activity (SRB, GI50), NUGC-3. The conditions noted are these: Homo sapiens, 48 hours. It is filed as cell-based. The gist of the method: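 Plate cells in RPMI 1640 containing 10% fetal bovine serum (37 °C, humidified 5% CO2). Add compound (0.1 μM to 10 μM) or 0.1% DMSO alone and incubate 48 h. Fix with trichloroacetic acid, stain with SRB, wash, solubilise dye and measure OD540 to obtain GI50.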

Another experiment concerns the target HDAC 1 (Homo sapiens, UniProt Q13547). As to the kind of experiment: HDAC enzyme fluorescence assay, HDAC 1. The following applies: recombinant HDAC enzyme, Boc-Lys(acetyl)-AMC. It is filed as biochemical. The protocol:
(§1) Particularly, HDAC enzyme analysis was performed based on a uniform fluorescence emission assay. First, the compounds of examples of the present invention or comparative example 1 were diluted at different concentrations, which were treated to the analysis buffer containing 25 mM HEPES (pH 8.0), 137 mM NaCl, 1 mM MgCl2 and 2.7 mM KCL, followed by culture of the recombinant HDAC enzyme. 10 minutes later, Boc-Lys(acetyl)-AMC, the fluorescence inducing substrate, was added thereto, followed by further culture at 37° C. At this time, the concentration of the fluorescence inducing substrate and the culture time were adjusted according to the isotypes of the HDAC enzyme. The reaction was terminated by treating trypsin at room temperature for 20 minutes. The fluorescence intensity was measured using a fluorescence analyzer at an excitation wavelength of 380 nm and an emission wavelength of 460 nm, respectively. The inhibition rate was calculated from the measured fluorescence intensity of each well with comparing to that of the control well. IC50 of the compound was calculated by analyzing the dose-reaction inhibition curve.

For another experiment, the target named is T1, HDAC 6 (Homo sapiens, UniProt Q9UBN7).
T1 sequence (Q9UBN7 1-1215): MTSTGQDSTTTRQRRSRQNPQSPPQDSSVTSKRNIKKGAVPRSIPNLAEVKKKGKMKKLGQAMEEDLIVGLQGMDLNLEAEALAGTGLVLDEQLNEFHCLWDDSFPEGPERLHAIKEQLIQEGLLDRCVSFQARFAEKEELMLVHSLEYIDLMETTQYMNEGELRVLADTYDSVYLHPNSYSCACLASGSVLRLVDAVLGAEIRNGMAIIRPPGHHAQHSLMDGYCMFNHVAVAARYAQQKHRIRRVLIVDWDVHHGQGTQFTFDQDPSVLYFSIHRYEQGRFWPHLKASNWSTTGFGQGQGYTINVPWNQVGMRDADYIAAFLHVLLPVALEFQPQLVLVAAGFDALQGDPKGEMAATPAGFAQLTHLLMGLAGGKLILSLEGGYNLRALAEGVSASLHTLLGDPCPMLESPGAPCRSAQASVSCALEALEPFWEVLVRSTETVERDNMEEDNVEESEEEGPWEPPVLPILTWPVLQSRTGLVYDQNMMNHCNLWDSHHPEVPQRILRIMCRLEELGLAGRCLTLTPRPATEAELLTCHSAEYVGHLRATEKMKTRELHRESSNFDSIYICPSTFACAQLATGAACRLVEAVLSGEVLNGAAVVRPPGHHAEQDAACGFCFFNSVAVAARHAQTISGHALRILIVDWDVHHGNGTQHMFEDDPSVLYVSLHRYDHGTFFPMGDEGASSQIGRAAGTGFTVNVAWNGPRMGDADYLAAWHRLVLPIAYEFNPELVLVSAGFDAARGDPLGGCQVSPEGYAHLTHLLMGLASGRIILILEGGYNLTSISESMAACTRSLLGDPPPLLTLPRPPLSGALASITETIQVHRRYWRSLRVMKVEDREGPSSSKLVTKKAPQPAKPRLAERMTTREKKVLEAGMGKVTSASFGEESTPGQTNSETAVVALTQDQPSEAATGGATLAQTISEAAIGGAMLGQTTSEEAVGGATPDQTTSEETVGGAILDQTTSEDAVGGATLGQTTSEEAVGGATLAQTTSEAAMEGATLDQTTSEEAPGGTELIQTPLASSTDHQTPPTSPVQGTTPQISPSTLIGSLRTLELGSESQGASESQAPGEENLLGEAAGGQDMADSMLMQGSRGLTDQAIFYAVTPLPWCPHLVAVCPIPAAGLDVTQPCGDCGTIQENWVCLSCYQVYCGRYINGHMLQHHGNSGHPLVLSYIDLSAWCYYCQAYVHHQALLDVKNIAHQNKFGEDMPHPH
Put plainly: HDAC enzyme fluorescence assay, HDAC 6. Type of experiment: biochemical. The following applies: recombinant HDAC enzyme, Boc-Lys(acetyl)-AMC. Here is the method:
as §1

Experiment [2] has as its system PC-3 cells, human prostate cancer cells. Put plainly: Anticancer activity in prostate cancer xenograft model. Type of experiment: in vivo, mice. The conditions noted are these: for tumor size / cancer proliferation (FIGS. 2, 3): 50 mg/kg (SAHA 100 mg/kg) once a day for 16 days, compared with the non-treated group. Here is the method:
Particularly, 9×10^6 PC-3 cells, human prostate cancer cells, were inoculated subcutaneously to the right side of female BALB/c nu/nu mice at 5 weeks of age (Nara Biotech, Seoul, Republic of Korea).
When the tumor size reached 40-60 mm^3, the mice were randomly grouped (4 mice per group), which were the non-treated group (10% dimethylacetamide, 10% tween 80 and 80% distilled water), the groups treated with the compounds of comparative examples 1 and 2 (Ajoene, 50 mg/kg), the groups treated with the compounds of examples 18 and 32 (50 mg/kg), and the group treated with the positive control SAHA (Vorinostat, 100 mg/kg). The treatment was performed once a day for 16 days in total. During the treatment, the tumor size was measured with a vernier caliper, followed by evaluation according to the following formula: length (mm)×width (mm)×height (mm)/2. The weights were measured regularly.
Upon completion of the treatment (16 days later), the mice were sacrificed and the tumor weights were measured. All the experiments were performed according to the experiment protocol approved by Institutional Animal care and Use Committee (IACUC), Korea Research Institute of Bioscience and Biotechnology (KRIBB).

pIC50: −log10 of the molar value.

HDAC 1, sequence (Q13547 whole entry, species assumed): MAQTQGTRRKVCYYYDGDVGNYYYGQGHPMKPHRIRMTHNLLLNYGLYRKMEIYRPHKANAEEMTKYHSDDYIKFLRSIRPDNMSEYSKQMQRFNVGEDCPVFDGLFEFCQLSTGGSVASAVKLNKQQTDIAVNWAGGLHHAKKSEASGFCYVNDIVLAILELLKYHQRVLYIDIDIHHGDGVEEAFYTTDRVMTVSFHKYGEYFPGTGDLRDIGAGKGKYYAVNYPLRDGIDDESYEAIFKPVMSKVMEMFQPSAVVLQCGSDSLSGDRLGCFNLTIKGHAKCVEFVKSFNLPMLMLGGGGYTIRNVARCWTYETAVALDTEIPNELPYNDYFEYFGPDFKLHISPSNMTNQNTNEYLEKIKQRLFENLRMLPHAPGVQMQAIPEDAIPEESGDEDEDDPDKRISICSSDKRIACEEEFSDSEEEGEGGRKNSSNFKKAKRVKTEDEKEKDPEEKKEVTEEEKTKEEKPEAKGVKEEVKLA

Consider `COc1ccc([S+]([O-])C/C=C\SSCc2ccccc2)cc1` (stereo not drawn) [Example 32, (Z)-1-benzyl-2-(3-(4-methoxyphenylsulfinyl)prop-1-enyl)disulfane], for which the GI50 (commonly the concentration at which growth is held to half of that of the control) in experiment [1] worked out at 3.82 µM. The pIC50 (commonly the IC50 on a negative log10 scale, so that one unit is a factor of ten) at HDAC 1 was 5.34; at HDAC 6, 6.26. Besides, the “tumor size / cancer proliferation (FIGS. 2, 3)” value in experiment [2] is “cancer proliferation was inhibited”.
The compound `CCCSS/C=C\C[S+]([O-])c1cccc(OC)c1` (stereo not drawn) [Example 18, (Z)-1-(3-(3-methoxyphenylsulfinyl)prop-1-enyl)-2-propyldisulfane] returned a GI50 in experiment [1] of 1.71 µM. The pIC50 was 5.45 at HDAC 1 and 5.96 at HDAC 6. Also, in experiment [2], the “tumor size / cancer proliferation (FIGS. 2, 3)” value is recorded as “inhibit cancer proliferation similarly to the positive control SAHA”. For the same compound, the “tumor weight (FIG. 4)” value in experiment [2] (50 mg/kg once a day, tumor extracted after 16 days) was “lighter than the tumor weight in the non-treated group”.

For the origin of these results see patent US11230525B2, “Organic sulfur compound, method for preparing same, and pharmaceutical composition for preventing or treating cancer or an inflammatory disease, containing same as active ingredient” (SOOKMYUNG WOMENS UNIVERSITY INDUSTRY-ACADEMIC COOPERATION …, priority 2016, dated 2022).
